Data as given in patent US20240109881A1, “Heteroaryl Compounds as Ligand Directed Degraders of IRAK4” (Bristol-Myers Squibb Company, priority 2022, published 2024).

Target: T1, IRAK4 (Homo sapiens, UniProt Q9NWZ3)
T1 construct: endogenous in cells; host or cells: THP-1 cells
T1 sequence (Q9NWZ3 1-460): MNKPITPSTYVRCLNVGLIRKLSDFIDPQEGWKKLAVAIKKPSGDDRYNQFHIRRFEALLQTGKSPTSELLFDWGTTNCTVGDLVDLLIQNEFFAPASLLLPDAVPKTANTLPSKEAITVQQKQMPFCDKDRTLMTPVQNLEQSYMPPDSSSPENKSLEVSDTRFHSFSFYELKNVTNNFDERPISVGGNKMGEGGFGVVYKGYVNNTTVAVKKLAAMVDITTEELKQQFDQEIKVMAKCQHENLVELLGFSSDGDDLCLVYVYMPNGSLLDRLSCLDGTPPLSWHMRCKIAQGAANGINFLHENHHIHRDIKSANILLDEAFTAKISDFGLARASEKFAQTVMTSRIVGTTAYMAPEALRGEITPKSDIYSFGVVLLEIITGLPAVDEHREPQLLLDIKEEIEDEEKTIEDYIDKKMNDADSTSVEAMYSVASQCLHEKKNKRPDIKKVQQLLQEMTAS
Experiment: LVL THP1 HTRF (THP1 Homogeneous Time Resolved Fluorescence)
Type: cell-based
Conditions: THP1 cells, 18 h incubation with compound; for DC50: read-out: LVL THP1 HTRF EC50
Protocol: Cell culture media was prepared in a tissue culture hood in a sterile environment by adding 10% FBS and 1% Penicillin Streptomycin to 500 mL no phenol red RPMI 1640 media. The media was filtered through a Nalgene Bottle Top Filter and stored at 4° C.
For Homogenous Time Resolved Fluorescence (HTRF) assays, a Cisbio HTRF kit was used, which included: Lysis Buffer #1 4×, Blocking Reagent #3 100×, 20× Antibody 1 (Anti-IRAK4 d2), 20× Antibody 2 (Anti-IRAK4 k), and Detection Buffer.
The THP1 plates were prepared by the following method. For each dosing plate, a duplicate for CTG assay was prepared. Two THP-1 T-175 flasks could be used to plate one 384 well plate. The cells were collected from two T-175 flasks into 200 mL centrifuge tubes and spun down at 1200 rpm for 10 min. The supernatant was removed completely and cells were resuspended in 7.5 mL cell culture media. To 5 μL of the cell suspension was added 25 μL of media and 30 μL of Trypan Blue stain. The cells were counted using countess (automated cell counter, Thermo Fisher Scientific) twice and the viability and live cell count was recorded. The actual cell count was […] the live cell count. Based on the count, a cell suspension was prepared in colorless RPMI media for a final concentration of 7.5e6 cells/mL. Using Standard cassette multidrop combi, 20 μL of the 7.5e6 cells/mL cell stock was added to entire 384 well plate but for top half of column 1 (negative control) The multidrop combi was always primed to achieve a steady flow and washed after use with 20 mL de-ionized water followed by 20 mL alcohol. The cells were incubated in 5% CO2 incubator at 37° C.
Dosing was conducted using the following method. To dose assay plates and CTG plate was added 20 nL of compounds in DMSO using Echo (Beckman Coulter), and the plates were incubated at 37° C. for 18 h. The compound plates were spun at 1200 rpm for 1 min before dosing. The compound plate was sealed and properly stored during incubation.
After dosing, an HTRF assay was conducted using the following method. The treatment plates (IRAK4_HTRF) were centrifuged at 600 g for 10 min. Using CyBio Felix, Automated liquid handler (Analytikjena), 13 μL cell culture media was removed. To all columns, 7.5 μL lysis buffer was added, and an additional 7.5 μL of lysis buffer was added to column 1(top half, negative control). The plate was incubated on a shaker at room temperature for 2 h. The plate was spun down at 600 g for 5 min. Custom 20×IRAK4 Antibody obtained from CISBIO Anti-IRAK4-d2 (acceptor Ab) and Anti-IRAK4-K (donor Ab) were diluted to 1× antibody mix Using a multichannel repeater, 4 μL of 1× antibody mix was added to each wellThe plate was spun down at 600 g for 5 min and incubated in the dark at room temperature for 18 h The next day (after 18 hrs), HTRF assay plate was spun down at 600 g for 5 min and read at 665/615 nm using a Envision plate reader.

Structure (SMILES)	LVL THP1 HTRF YMIN	DC50
C[C@H](C#N)Nc1cc(-n2ncc3cc(C#N)c(N)nc32)ncc1-n1cc([C@H]2CC[C@H](CCN3CCN(c4ccc([C@@]5(C)CCC(=O)NC5=O)nn4)CC3)CC2)nn1 (single isomer, unassigned) [P-309]	96.8%	1000 nM
C[C@H](C#N)Nc1cc(-n2ncc3cc(C#N)cnc32)ncc1-n1cc([C@H]2CC[C@H](CCN3CC[C@H]4[C@@H]3CCN4c3ccc([C@@]4(C)CCC(=O)NC4=O)cn3)CC2)nn1 (single isomer, unassigned) [P-312]	7.9%	13.2 nM
C[C@H](C#N)Nc1cc(-n2ncc3cc(C#N)cnc32)ncc1-n1cc([C@H]2CC[C@H](CCN3CC[C@H]4[C@@H]3CCN4c3ccc([C@@]4(C)CCC(=O)NC4=O)cn3)CC2)nn1 (single isomer, unassigned) [P-313]	44.9%	244 nM
C[C@H](C#N)Nc1cc(-n2ncc3cc(C#N)c(N4C[C@H]5C[C@@H]4CO5)nc32)ncc1-n1cc([C@H]2CC[C@H](CCN3CCC(c4ccc([C@@]5(F)CCC(=O)NC5=O)cc4)CC3)CC2)nn1 (single isomer, unassigned) [P-319]	87.9%	1000 nM
C[C@H](C#N)Nc1cc(-n2ncc3cc(C#N)cnc32)ncc1-n1cc([C@H]2CC[C@H](CCN3C[C@@H]4CN(c5ccc(N6CCC(=O)NC6=O)cc5)C[C@@H]4C3)CC2)nn1 (single isomer, unassigned) [P-323]	12.0%	96.7 nM
C[C@H](C#N)Nc1cc(-n2ncc3cc(C#N)cnc32)ncc1-n1cc([C@H]2CC[C@H](CCN3CC[C@H]4[C@@H]3CCN4c3ccc(C4CCC(=O)NC4=O)cc3)CC2)nn1 (single isomer, unassigned) [P-325]	1.6%	3.8 nM
C[C@H](C#N)Nc1cc(-n2ncc3cc(C#N)cnc32)ncc1-n1cc([C@H]2CC[C@H](CCN3CC[C@H]4[C@@H]3CCN4c3ccc(C4CCC(=O)NC4=O)cc3)CC2)nn1 (single isomer, unassigned) [P-327]	2.2%	2.8 nM
C[C@H](C#N)Nc1cc(-n2ncc3cc(C#N)cnc32)ncc1-n1cc(C2CCC(CCN3CC[C@H]4[C@@H]3CCN4c3ccc(N4CCC(=O)NC4=O)cc3)CC2)nn1 (single isomer, unassigned) [P-328]	2.5%	2.5 nM
C[C@H](C#N)Nc1cc(-n2ncc3cc(C#N)cnc32)ncc1-n1cc([C@H]2CC[C@](O)(CCN3CCN(c4ccc(N5CCC(=O)NC5=O)cc4)CC3)CC2)nn1 (single isomer, unassigned) [P-373]	72.5%	1000 nM
C[C@H](C#N)Nc1cc(-n2ncc3cc(C#N)cnc32)ncc1-n1cc([C@H]2CC[C@H](CCN3CC[C@H]4[C@@H]3CCN4c3ccc([C@@]4(C)CCC(=O)NC4=O)nc3)CC2)nn1 (single isomer, unassigned) [P-415]	37.5%	192 nM
C[C@H](C#N)Nc1cc(-n2ncc3cc(C#N)cnc32)ncc1-n1cc([C@H]2CC[C@H](CCN3CC[C@H]4[C@@H]3CCN4c3ccc([C@@]4(C)CCC(=O)NC4=O)nc3)CC2)nn1 (single isomer, unassigned) [P-418]	1.8%	14.9 nM
C[C@H](C#N)Nc1cc(-n2ncc3cc(C#N)cnc32)ncc1-n1cc([C@H]2CC[C@](O)(CCN3CCN(c4ccc([C@@]5(C)CCC(=O)NC5=O)nc4)CC3)CC2)nn1 (single isomer, unassigned) [P-419]	−0.8%	31.6 nM

Further lines, results first:

LVL THP1 HTRF YMIN	DC50	Structure (SMILES)
6.5%	21.8 nM	C[C@H](C#N)Nc1cc(-n2ncc3cc(C#N)cnc32)ncc1-n1cc([C@H]2CC[C@H](CCN3CC[C@@H](c4ccc([C@@]5(C)CCC(=O)NC5=O)cc4)C(F)(F)C3)CC2)nn1 (single isomer, unassigned) [P-314]
2.0%	1.3 nM	C[C@H](C#N)Nc1cc(-n2ncc3cc(C#N)c(N)nc32)ncc1-n1cc([C@H]2CC[C@H](CCN3CCC(c4ccc([C@@]5(F)CCC(=O)NC5=O)cc4)CC3)CC2)nn1 (single isomer, unassigned) [P-317]
47.8%	374 nM	C[C@H](C#N)Nc1cc(-n2ncc3cc(C#N)c(N)nc32)ncc1-n1cc([C@H]2CC[C@H](CCN3CCC(c4ccc([C@@]5(F)CCC(=O)NC5=O)cc4)CC3)CC2)nn1 (single isomer, unassigned) [P-318]
0.3%	4 nM	C[C@H](C#N)Nc1cc(-n2ncc3cc(C#N)cnc32)ncc1-n1cc([C@H]2CC[C@H](CCN3CC[C@H](c4ccc([C@@]5(F)CCC(=O)NC5=O)cc4)C[C@H]3C)CC2)nn1 (single isomer, unassigned) [P-326]
−2.2%	1.8 nM	CC1CN(CC[C@H]2CC[C@H](c3cn(-c4cnc(-n5ncc6cc(C#N)cnc65)cc4N[C@H](C)C#N)nn3)CC2)CCC1c1ccc([C@@]2(F)CCC(=O)NC2=O)cc1 (single isomer, unassigned) [P-331]
20.7%	261 nM	CC1CN(CC[C@H]2CC[C@H](c3cn(-c4cnc(-n5ncc6cc(C#N)cnc65)cc4N[C@H](C)C#N)nn3)CC2)CCC1c1ccc([C@@]2(F)CCC(=O)NC2=O)cc1 (single isomer, unassigned) [P-332]
26.8%	334 nM	CC1CN(CC[C@H]2CC[C@H](c3cn(-c4cnc(-n5ncc6cc(C#N)cnc65)cc4N[C@H](C)C#N)nn3)CC2)CCC1c1ccc([C@@]2(F)CCC(=O)NC2=O)cc1 (single isomer, unassigned) [P-333]
2.7%	3.8 nM	C[C@H](C#N)Nc1cc(-n2ncc3cc(C#N)cnc32)ncc1-n1cc([C@H]2CC[C@H](CCN3CCC(c4ccc([C@@]5(F)CCC(=O)NC5=O)cc4)CC3)CC2)nn1 (single isomer, unassigned) [P-337]
61.2%	501 nM	C[C@H](C#N)Nc1cc(-n2ncc3cc(C#N)cnc32)ncc1-n1cc([C@H]2CC[C@H](CCN3CCC(c4ccc([C@@]5(F)CCC(=O)NC5=O)cc4)CC3)CC2)nn1 (single isomer, unassigned) [P-338]
−1.8%	2.8 nM	CC1CN(CC[C@H]2CC[C@H](c3cn(-c4cnc(-n5ncc6cc(C#N)cnc65)cc4N[C@H](C)C#N)nn3)CC2)CCC1c1ccc([C@@]2(F)CCC(=O)NC2=O)cc1 (single isomer, unassigned) [P-390]
7.8%	27.9 nM	C[C@H](C#N)Nc1cc(-n2ncc3cc(C#N)cnc32)ncc1-n1cc([C@H]2CC[C@H](CCN3CCC(c4ccc(N5CCC(=O)NC5=O)cc4)C(F)C3)CC2)nn1 (single isomer, unassigned) [P-400]
71.4%	2350 nM	C[C@H](C#N)Nc1cc(-n2ncc3cc(C#N)cnc32)ncc1-n1cc([C@H]2CC[C@H](CCN3CCC[C@@H]4[C@H]3CCCN4c3ccc([C@@]4(C)CCC(=O)NC4=O)cc3)CC2)nn1 (single isomer, unassigned) [P-414]
1.8%	51.4 nM	C[C@H](C#N)Nc1cc(-n2ncc3cc(C#N)cnc32)ncc1-n1cc([C@H]2CC[C@H](CCN3CCC(c4ccc([C@@]5(C)CCC(=O)NC5=O)cc4)C(F)(F)C3)CC2)nn1 (single isomer, unassigned) [P-417]
